Values after ≈ are worked out from the molar mass of the structure shown. Values joined by “and” are separate entries in the source; they are usually repeats but may differ in a detail not shown here. Identical values can stand only once. Like-named read-outs stand apart in the source and are kept apart here.
Key:
[1] = test system: Streptococcus pneumoniae MB6357 (CL 2883); experiment: Nargenicin antibacterial assay (MIC), S. pneumoniae; format: cell-based; details: Streptococcus pneumoniae
[2] = test system: Escherichia coli MB5747 (LS 883, tolC); experiment: microbe, parasite or virus in culture; format: cell-based; details: * = some reduction of growth versus control at […]; for MIC: Escherichia coli, read-out: E. coli LS883 tolC (MIC), MHII broth
[3] = test system: Pseudomonas aeruginosa MB5890 (CB1101, efflux-deleted); experiment: microbe, parasite or virus in culture; format: cell-based; details: * = some reduction of growth versus control at […]; for MIC: Pseudomonas aeruginosa, read-out: P. aeruginosa MB5890 efflux-del (MIC), MHII broth
[4] = biological target: T1, E. coli DnaE (DNA polymerase III α-subunit from Escherichia coli) (Escherichia coli, UniProt P10443); experiment: In vitro DnaE single enzyme assay (E. coli); format: biochemical
T1 construct: EcDnaE (E. coli DnaE residues 1-1160); 6xHis (N); made in house; host or cells: E. coli BL21(DE3)
Experimental: (§1) Plasmids encoding EcDnaE (E. coli DnaE residues 1-1160) and SaDnaE (S. aureus DnaE residues 1-1065) with 6×His N-terminal tags, were overexpressed in BL21(DE3) and BL21-AI cells (Invitrogen), respectively. Cells were grown in LB media to an OD ˜0.45 pelleted and then resuspended in Minimal Media, as described in Pryor et al. (1997, Protein Expr Purif. 10:309-19), and inducer (0.4 mM IPTG or 0.2% arabinose) for 21 hours at 18° C. at 220 rpm. Cells were then harvested, frozen for 20 minutes at −80° C. and thawed. Pellets were resuspended in 1× Talon buffer (50 mM Sodium Phosphate, 300 mM Sodium Chloride, pH 7.4) +10% glycerol +Roche PI's (-EDTA). Cells were lysed with two passes through a French press, then centrifuged for 45 minutes at 40,000 rpm (70Ti, Beckman). Supernatant was bound to 5 mL TALON resin (CLONTECH) for 1 hour at room temperature on Nutator. TALON resin was washed with 10 mM imidizole, and DnaE was eluted with 250 mM imidizole. Eluate was concentrated and run on a size exclusion column (SEC200, GE Healthcare) in the following buffer; 25 mM HEPES, 30 mM NaCl,1 mM CaCl2, 5% glycerol, pH 7.9. Pool SEC fractions based on SDS-PAGE run, aliquot, freeze, and store at -80° C.
(§2) DnaE was diluted in 50 mM potassium phosphate pH 7.5, 5 mM BME, 10% glycerol and 200 mM NaCl prior to use.
(§3) The purpose of the DnaE single enzyme assay is to determine the ability of compounds to inhibit the DNA polymerase III α-subunit homolog from Staphylococcus aureus or the α-subunit from Escherichia coli without the other components of the replication machinery. The DnaE single enzyme assay was a modified version of the method, Standard Pol III Assay Using Activated DNA and Four dNTPs, described by Butler et al., 2008, Methods in Molecular Medicine: New Antibiotic Targets 142:25-36. Briefly, in 96-well plates, enzyme was added to a mixture containing 30 mM Tris-HCl pH 7.5, 20% glycerol, 4 mM DTT, 10 mM Mg acetate, 0.025 mM dATP, 0.025 mM dGTP, 0.025 mM dc:TP, 0.011 mM ^3H-dTTP 1 mCi/ml (Perkin-Elmer), and 0.298 mg/mL Dnase I (Sigma) treated “activated” Calf Thymus DNA (Worthington Biochemical). The assay was set up so that 5 μl of compound was distributed to the plates, 90 μl of reaction mix was added to the compound, and 5 μl of enzyme was added to start the reaction. Assays were initiated by the addition of 0.8 μg/ml E. coli or 0.05 μg/ml S. aureus DnaE, incubated for 30 min at 30° C., and terminated by the addition of a 20% trichloroacetic acid and 0.2% sodium pyrophosphate solution. Precipitated labeled DNA was collected on Glass-fiber Filtermat A using Micro96 Harvester, and the filters were washed, dried, and counted in a Microbeta Trilux (Perkin Elmer). Serial dilutions of compounds (in DMSO) were added to the plates before enzyme addition.

[5] = test system: Staphylococcus aureus MB6266 (MRSA COL); experiment: Nargenicin antibacterial assay (MIC), S. aureus; format: cell-based; details: Staphylococcus aureus, MRSA, read-out: S. aureus COL (MIC), MHII broth + 50% human serum; * = some reduction of growth versus control at […]
[6] = biological target: T2, S. aureus DnaE (DNA polymerase III α-subunit homolog from Staphylococcus aureus) (Staphylococcus aureus, UniProt Q5HF71); experiment: biochemical; format: biochemical
T2 construct: SaDnaE (S. aureus DnaE residues 1-1065); 6xHis (N); made in house; host or cells: E. coli BL21-AI
T2 sequence (Q5HF71 1-1065): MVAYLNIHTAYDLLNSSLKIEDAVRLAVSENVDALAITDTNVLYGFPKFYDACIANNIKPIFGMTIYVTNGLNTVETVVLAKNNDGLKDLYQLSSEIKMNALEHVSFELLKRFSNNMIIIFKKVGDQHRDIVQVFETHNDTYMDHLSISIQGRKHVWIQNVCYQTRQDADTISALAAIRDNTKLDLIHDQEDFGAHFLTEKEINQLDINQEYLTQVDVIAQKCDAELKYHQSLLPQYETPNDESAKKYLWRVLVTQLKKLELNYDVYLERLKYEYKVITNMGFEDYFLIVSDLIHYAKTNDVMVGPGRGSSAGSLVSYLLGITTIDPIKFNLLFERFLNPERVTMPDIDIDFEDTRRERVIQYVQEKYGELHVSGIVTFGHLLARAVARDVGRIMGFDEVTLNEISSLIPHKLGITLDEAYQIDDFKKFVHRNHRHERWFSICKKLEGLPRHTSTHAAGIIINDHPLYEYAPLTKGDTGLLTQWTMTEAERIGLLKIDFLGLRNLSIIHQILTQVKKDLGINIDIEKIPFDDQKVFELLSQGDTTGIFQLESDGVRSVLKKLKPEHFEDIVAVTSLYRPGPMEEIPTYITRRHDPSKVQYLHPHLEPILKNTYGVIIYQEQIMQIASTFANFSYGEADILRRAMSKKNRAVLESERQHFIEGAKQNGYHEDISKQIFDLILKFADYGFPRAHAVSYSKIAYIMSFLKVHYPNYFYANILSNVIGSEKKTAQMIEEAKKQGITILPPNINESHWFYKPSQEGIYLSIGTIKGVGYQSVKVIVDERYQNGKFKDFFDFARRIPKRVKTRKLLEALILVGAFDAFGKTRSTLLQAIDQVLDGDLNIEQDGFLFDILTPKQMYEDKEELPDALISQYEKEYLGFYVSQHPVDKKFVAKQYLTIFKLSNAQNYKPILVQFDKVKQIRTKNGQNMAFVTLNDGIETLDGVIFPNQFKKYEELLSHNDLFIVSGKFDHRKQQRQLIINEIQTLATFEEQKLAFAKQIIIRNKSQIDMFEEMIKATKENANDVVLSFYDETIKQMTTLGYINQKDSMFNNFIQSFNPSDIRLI
Experimental: as §1, §2, §3

[7] = read-out: S. pneumoniae MB2883 (MIC), Isosensitest broth, * = some reduction of growth versus control at […]
[8] = read-out: S. pneumoniae MB2883 (MIC)
[9] = read-out: S. aureus DnaE IC50 (converted)

T1 sequence (P10443 whole entry, the tested form may be a part): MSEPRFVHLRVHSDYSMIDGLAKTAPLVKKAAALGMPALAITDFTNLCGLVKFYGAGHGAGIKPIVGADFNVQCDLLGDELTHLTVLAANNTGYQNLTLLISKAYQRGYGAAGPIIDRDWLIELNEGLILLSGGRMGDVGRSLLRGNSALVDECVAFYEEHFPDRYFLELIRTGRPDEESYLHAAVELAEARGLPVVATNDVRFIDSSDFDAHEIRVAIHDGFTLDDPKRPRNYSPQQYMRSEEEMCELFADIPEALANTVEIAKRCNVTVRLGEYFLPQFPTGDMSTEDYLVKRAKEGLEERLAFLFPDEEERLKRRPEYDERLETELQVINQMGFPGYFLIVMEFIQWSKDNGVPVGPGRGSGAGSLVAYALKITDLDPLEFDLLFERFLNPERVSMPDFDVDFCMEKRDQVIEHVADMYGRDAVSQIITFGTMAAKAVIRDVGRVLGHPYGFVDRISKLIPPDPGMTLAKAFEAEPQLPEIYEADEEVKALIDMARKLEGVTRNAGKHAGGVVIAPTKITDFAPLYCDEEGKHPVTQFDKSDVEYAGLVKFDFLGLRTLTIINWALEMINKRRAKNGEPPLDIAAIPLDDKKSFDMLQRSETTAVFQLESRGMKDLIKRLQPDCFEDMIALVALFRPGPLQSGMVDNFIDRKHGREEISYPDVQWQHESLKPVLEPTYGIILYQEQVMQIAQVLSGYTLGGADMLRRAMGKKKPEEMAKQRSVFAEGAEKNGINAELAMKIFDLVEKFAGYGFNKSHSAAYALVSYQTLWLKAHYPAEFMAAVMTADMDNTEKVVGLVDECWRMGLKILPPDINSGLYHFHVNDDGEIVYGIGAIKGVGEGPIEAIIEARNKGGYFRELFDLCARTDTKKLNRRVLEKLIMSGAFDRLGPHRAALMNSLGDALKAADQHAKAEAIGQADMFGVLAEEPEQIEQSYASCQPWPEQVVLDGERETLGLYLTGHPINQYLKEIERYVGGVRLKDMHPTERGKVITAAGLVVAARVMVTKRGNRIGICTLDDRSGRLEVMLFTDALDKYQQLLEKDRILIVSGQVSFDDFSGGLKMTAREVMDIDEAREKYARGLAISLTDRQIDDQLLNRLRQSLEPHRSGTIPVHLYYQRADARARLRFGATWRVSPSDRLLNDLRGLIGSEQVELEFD

SMILES | MIC [1, 7] [µg/mL] | MIC [2] [µg/mL] | MIC [3] [µg/mL] | IC50 ([4]; read-out: E. coli DnaE IC50 (converted)) [µM] | MIC [5] [µg/mL] | IC50 ([6]; S. aureus DnaE IC50) [µM] | E. coli LS883 tolC (MIC) ([2]; MHII broth) [µg/mL] | P. aeruginosa MB5890 efflux-del (MIC) ([3]; MHII broth) [µg/mL] | IC50 ([4]; E. coli DnaE IC50) | MIC [1, 8] [µg/mL] | IC50 [6, 9] [µM]
CO[C@H]1CC2C=C[C@H]3[C@H]4O[C@]2(/C(C)=C/[C@@H](C)[C@@H]([C@@H](C)OC(=O)OC2CCC(O)CC2)OC1=O)[C@@H]3[C@H](O)[C@@H](C)[C@H]4OC(=O)c1ccc[nH]1 (single isomer, unassigned) [Example 34] | 64 (≈ 97.3 µM) | 32 (≈ 48.7 µM) | > 128 | 106 | 32 | 0.0106 |  |  |  |  | 
COC1CC2C=CC3C4OC2(C(C)=CC(C)C(C(C)OC(=O)OCCN(CCO)C(CO)(CO)CO)OC1=O)C3C(O)C(C)C4OC(=O)c1ccc[nH]1 (centres unmarked) [Example 31] | > 128 | 2 (≈ 2.66 µM) | 32 (≈ 42.6 µM) |  | 2 | < 0.00799 |  |  |  |  | 
CO[C@H]1CC2C=C[C@H]3[C@H]4O[C@]2(/C(C)=C/[C@@H](C)[C@@H](C(C)O)OC1=O)[C@@H]3[C@H](O)[C@@H](C)[C@H]4OC(=O)c1cc(-c2cccn2C(=O)OC(C)(C)C)c[nH]1 (some centres unmarked) [Example 45] | 4 (≈ 5.88 µM) | > 128 | > 128 |  | > 128 | 2.2 |  |  |  |  | 
CO[C@H]1C[C@H]2C=C[C@H]3[C@H]4O[C@]2(/C(C)=C/[C@@H](C)[C@@H]([C@@H](C)O)OC1=O)[C@@H]3[C@H](O)[C@@H](C)[C@H]4O [Example 152] | > 128 | 16 (≈ 37.9 µM) | 16 (≈ 37.9 µM) |  | > 128 |  |  |  |  |  | 
CC[C@H]1OC(=O)[C@@H](OC)C[C@H]2C=C[C@H]3[C@H]4O[C@]2(/C(C)=C/[C@H]1C)[C@@H]3[C@H](O)[C@@H](C)[C@H]4OC(=O)c1ccc[nH]1 [Example 159] |  | 4 (≈ 8.01 µM) | 32 (≈ 64.1 µM) |  | 2 | < 0.006 | 2 | 16 | 36 µM and 22 µM and 30 µM and 20 µM |  | 
CO[C@H]1CC2C=C[C@H]3[C@H]4O[C@]2(/C(C)=C/[C@@H](C)[C@@H](C(C)O)OC1=O)[C@@H]3[C@H](O)[C@@H](C)[C@H]4OC(=O)c1cc(-c2ccsc2)c[nH]1 (some centres unmarked) [Example 165] | 8 (≈ 13.4 µM) | 16 (≈ 26.8 µM) | > 128 |  | > 128 | 4.85 |  |  |  |  | 
CO[C@H]1C[C@H]2C=C[C@@H]3[C@H]4C(=O)C(C)C(C[N+](=O)[O-])[C@@H]3O[C@@]24/C(C)=C/[C@@H](C)[C@@H]([C@@H](C)OCSC)OC1=O (some centres unmarked) [Example 175] | > 128 | > 128 | > 128 |  | > 128 | > 191 |  |  |  |  | 
CO[C@H]1C[C@H]2C=C[C@H]3[C@H]4O[C@]2(/C(C)=C/[C@@H](C)[C@@H]([C@@H](C)O)OC1=O)[C@@H]3[C@H](O)[C@@H](C)[C@H]4OC(=O)c1ccsc1 [Example 183] |  | 1 (≈ 1.88 µM) | 16 (≈ 30 µM) |  |  |  |  |  | 9.76 µM | 64 (≈ 120 µM) | < 0.0113
CO[C@H]1C[C@H]2C=C[C@H]3[C@H]4O[C@]2(/C(C)=C/[C@@H](C)[C@@H]([C@@H](C)O)OC1=O)[C@@H]3[C@H](O)[C@@H](C)[C@H]4OCc1ccsc1 [Example 184] |  | 8 (≈ 15.4 µM) | 64 (≈ 123 µM) |  |  |  |  |  | 75.2 µM | 64 (≈ 123 µM) | 0.0771
CC[C@H]1OC(=O)[C@@H](OC)C[C@H]2C=C[C@H]3[C@H]4O[C@]2(/C(C)=C/[C@H]1C)[C@@H]3[C@H](O)C(C)[C@H]4C[N+](=O)[O-] (stereo partly drawn) [Example 190, (3R,4R,7S,8aS,10aR,11R,12S,14R,14aS,14bS,E)-4-ethyl-14-hydroxy-7-methoxy-1,3,13-trimethyl-12-(nitromethyl)-3,4,8,8a,10a,11,12,13,14,14a-decahydro-11,14b-epoxynaphtho[2,1-e]oxecin-6(7H)-one] |  | 64 (≈ 142 µM) | > 64 |  |  |  |  |  | 66.7 µM | > 64 | 6.67
CO[C@H]1C[C@H]2C=CC3C4[C@H](O)[C@@H](C)[C@@H](OC(=O)c5ccc[nH]5)[C@@H]3O[C@]42/C(C)=C/[C@@H](C)[C@@H]([C@@H](C)OC(=O)C(=O)OCCN(C)C)OC1=O.O=C(O)C(F)(F)F [Example 205] |  | 2 | 64 |  |  |  |  |  | 7.76 µM | > 128 | < 0.00776
CO[C@H]1C[C@H]2C=CC3C4[C@H](O)[C@@H](C)[C@@H](OC(=O)c5ccc[nH]5)[C@@H]3O[C@]42/C(C)=C/[C@@H](C)[C@@H]([C@@H](C)OC(=O)C(=O)OCc2cccnc2)OC1=O.O=C(O)C(F)(F)F [Example 208] |  | 1 | 32 |  |  |  |  |  | 3.41 µM | > 128 | < 0.00757
